The supplement of paper PMC10307832

Legend:
Assay in all cases: relative viability (nuclei count vs DMSO), 5 days (fraction); higher = more cells survive
Crenolanib + Tozasertib = compound: CC1(COc2ccc3c(c2)ncn3-c2ccc3cccc(N4CCC(N)CC4)c3n2)COC1 [Crenolanib] + Cc1cc(Nc2cc(N3CCN(C)CC3)nc(Sc3ccc(NC(=O)C4CC4)cc3)n2)n[nH]1 [Tozasertib] (partner 0.1 µM)
Method in brief: (§1)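 One day after seeding in 1536-well plates, lung cancer cell lines were dosed by pin tool. Dosing was either single-drug or a fixed anchor-drug dose plus five library-drug doses (not always all listed) in √10 steps. After 5 days, nuclei were stained in one fix-and-stain step and counted on 4× images, and relative viability is the nuclei count of treated wells over that of vehicle wells, given as the median of duplicate plates.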

Tivantinib + Crizotinib = compound: O=C1NC(=O)[C@@H](c2cn3c4c(cccc24)CCC3)[C@@H]1c1c[nH]c2ccccc12 [Tivantinib] + C[C@@H](Oc1cc(-c2cnn(C3CCNCC3)c2)cnc1N)c1c(Cl)ccc(F)c1Cl [Crizotinib] (partner 1 µM)
Method in brief: as §1

Tivantinib + Pemetrexed = compound: O=C1NC(=O)[C@@H](c2cn3c4c(cccc24)CCC3)[C@@H]1c1c[nH]c2ccccc12 [Tivantinib] + Nc1nc2[nH]cc(CCc3ccc(C(=O)N[C@@H](CCC(=O)O)C(=O)O)cc3)c2c(=O)[nH]1 [Pemetrexed] (partner 0.2 µM)
Method in brief: as §1

Tivantinib + Navitoclax = compound: O=C1NC(=O)[C@@H](c2cn3c4c(cccc24)CCC3)[C@@H]1c1c[nH]c2ccccc12 [Tivantinib] + CC1(C)CCC(c2ccc(Cl)cc2)=C(CN2CCN(c3ccc(C(=O)NS(=O)(=O)c4ccc(N[C@H](CCN5CCOCC5)CSc5ccccc5)c(S(=O)(=O)C(F)(F)F)c4)cc3)CC2)C1 [Navitoclax] (partner 0.5 µM)
Method in brief: as §1

Cell Line	relative viability (Crenolanib + Tozasertib; first compound 0.01 µM)	relative viability (Crenolanib + Tozasertib; first compound 0.03162 µM)	relative viability (Crenolanib + Tozasertib; first compound 0.1 µM)	relative viability (Crenolanib + Tozasertib; first compound 0.3162 µM)	relative viability (Crenolanib + Tozasertib; first compound 1 µM)	relative viability (Tivantinib + Crizotinib; first compound 0.01 µM)	relative viability (Tivantinib + Crizotinib; first compound 0.03162 µM)	relative viability (Tivantinib + Crizotinib; first compound 0.1 µM)	relative viability (Tivantinib + Crizotinib; first compound 0.3162 µM)	relative viability (Tivantinib + Pemetrexed; first compound 0.01 µM)	relative viability (Tivantinib + Pemetrexed; first compound 0.03162 µM)	relative viability (Tivantinib + Pemetrexed; first compound 0.1 µM)	relative viability (Tivantinib + Pemetrexed; first compound 0.3162 µM)	relative viability (Tivantinib + Navitoclax; first compound 0.01 µM)	relative viability (Tivantinib + Navitoclax; first compound 0.03162 µM)	relative viability (Tivantinib + Navitoclax; first compound 0.1 µM)	relative viability (Tivantinib + Navitoclax; first compound 0.3162 µM)
ABC-1	0.177	0.202	0.179	0.162	0.133	1.39	1.14	0.91	1.5	–	–	–	–	–	–	–	–
SW 900	0.62	0.675	0.547	0.457	0.516	–	–	–	–	0.551	0.497	0.475	0.515	–	–	–	–
PC-14	0.697	0.573	0.554	0.533	0.413	0.912	0.883	0.934	0.894	0.142	0.123	0.147	0.103	1.05	0.926	0.981	0.947
NCI-H1648	0.496	0.51	0.602	0.387	0.408	–	–	–	–	–	0.67	0.722	0.486	–	–	–	–
A549	–	–	–	–	–	0.894	0.81	0.713	0.638	–	–	–	–	1.28	1.15	1.19	1.2
A-427	0.209	0.237	0.224	0.181	0.225	0.893	1.02	0.821	0.859	1.01	1.06	0.99	0.961	0.893	0.882	0.924	0.951
NCI-H1915	0.453	0.415	0.436	0.424	0.391	0.868	0.888	0.852	0.91	0.423	0.482	0.495	0.53	0.789	0.796	0.771	0.798
LOU-NH91	0.767	0.655	0.653	0.431	0.616	0.746	0.729	0.705	0.53	0.394	0.428	0.4	0.468	0.651	0.637	0.622	0.355
NCI-H1734	0.275	0.251	0.249	0.306	0.275	0.685	0.73	0.586	0.569	0.43	0.352	0.417	0.432	0.849	0.86	0.802	0.896
LCLC-97TM1	0.268	0.194	0.247	0.202	0.258	0.451	0.305	0.38	0.318	0.148	0.165	0.157	0.191	0.423	0.28	0.358	0.398
RERF-LC-KJ	0.532	0.469	0.527	0.487	0.461	0.831	0.886	0.852	0.831	0.38	0.452	0.445	0.44	0.901	1.05	0.818	0.829
BEN	0.524	0.476	0.474	0.484	0.464	0.897	0.72	0.672	0.681	0.724	0.71	0.636	0.684	0.0556	0.0502	0.07	0.0718
NCI-H1703	–	–	–	–	–	0.747	1.01	0.535	0.255	–	–	–	–	1.51	1.29	1.19	0.833
LCLC-103H	0.46	0.588	0.448	0.359	0.458	0.996	1.04	1.05	0.941	0.472	0.368	0.406	0.432	–	–	–	–
Calu-6	–	–	–	–	–	0.795	0.799	0.665	0.826	–	–	–	–	0.866	0.996	0.807	0.716
NCI-H358	0.0999	0.097	0.0998	0.0966	0.12	0.651	0.574	0.709	0.301	0.178	0.177	0.191	0.167	–	–	–	–
NCI-H2342	0.546	0.496	0.682	0.483	0.454	–	–	–	–	0.761	0.849	0.771	0.681	–	–	–	–
EBC-1	–	–	–	–	–	0.184	0.189	0.195	0.198	–	–	–	–	0.505	0.46	0.414	0.293
NCI-H522	0.559	0.604	0.559	0.561	0.576	–	–	–	–	1.01	1.02	0.997	0.476	–	–	–	–
NCI-H650	0.826	0.79	0.707	0.327	0.614	0.728	–	0.629	0.557	1.19	0.842	0.839	0.909	–	–	–	–
NCI-H661	0.342	0.36	0.35	0.359	0.412	0.914	1	0.962	0.736	0.922	0.961	0.975	0.844	–	–	–	–
NCI-H727	0.635	0.579	0.721	0.65	0.501	0.764	0.96	0.88	–	–	–	–	–	0.412	0.432	0.311	–
NCI-H1793	0.368	0.362	0.396	0.226	0.422	–	–	–	–	0.83	0.885	0.832	0.669	0.43	0.417	0.481	–
NCI-H1299	–	–	–	–	–	0.686	0.972	0.587	0.93	–	–	–	–	1.01	0.998	1.06	1.05
IA-LM	–	–	–	–	–	0.962	0.857	0.677	1.08	–	–	–	–	0.973	0.792	0.743	0.795
NCI-H1792	–	–	–	–	–	1.02	0.948	0.828	0.932	0.965	–	0.81	0.725	0.619	0.66	0.651	0.816
